The source made the active and inactive calls. The rule behind the calls is not given here.
What was measured:
[1] = target: T1, Aldehyde dehydrogenase 1A1 (Homo sapiens) (UniProt P00352); experiment: Inhibition of ALDH1A1 (unknown origin) in presence of dithiothreitol
T1 sequence (whole entry): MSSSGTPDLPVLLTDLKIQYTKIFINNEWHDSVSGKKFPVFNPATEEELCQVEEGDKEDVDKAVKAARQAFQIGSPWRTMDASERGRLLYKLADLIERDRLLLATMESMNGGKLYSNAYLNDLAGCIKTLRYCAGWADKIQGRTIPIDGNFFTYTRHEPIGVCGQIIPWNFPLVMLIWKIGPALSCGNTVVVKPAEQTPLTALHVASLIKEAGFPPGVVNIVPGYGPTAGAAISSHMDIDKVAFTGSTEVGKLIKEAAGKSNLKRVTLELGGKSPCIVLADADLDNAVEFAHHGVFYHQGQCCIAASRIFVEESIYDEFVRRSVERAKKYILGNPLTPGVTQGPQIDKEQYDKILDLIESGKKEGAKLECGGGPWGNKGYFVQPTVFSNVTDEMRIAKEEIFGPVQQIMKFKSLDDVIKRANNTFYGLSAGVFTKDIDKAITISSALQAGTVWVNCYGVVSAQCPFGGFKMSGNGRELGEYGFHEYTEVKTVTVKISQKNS

[2] = target: T2, Aldehyde dehydrogenase 1A1 (Homo sapiens, UniProt P00352); experiment: Inhibition of ALDH1A1 (unknown origin); format: single protein
T2 sequence (P00352 whole entry): T1 sequence (whole entry)

[3] = target: T3, Aldehyde dehydrogenase, mitochondrial (Homo sapiens, UniProt P05091); experiment: Inhibition of ALDH2 (unknown origin); format: single protein
T3 sequence (P05091 whole entry): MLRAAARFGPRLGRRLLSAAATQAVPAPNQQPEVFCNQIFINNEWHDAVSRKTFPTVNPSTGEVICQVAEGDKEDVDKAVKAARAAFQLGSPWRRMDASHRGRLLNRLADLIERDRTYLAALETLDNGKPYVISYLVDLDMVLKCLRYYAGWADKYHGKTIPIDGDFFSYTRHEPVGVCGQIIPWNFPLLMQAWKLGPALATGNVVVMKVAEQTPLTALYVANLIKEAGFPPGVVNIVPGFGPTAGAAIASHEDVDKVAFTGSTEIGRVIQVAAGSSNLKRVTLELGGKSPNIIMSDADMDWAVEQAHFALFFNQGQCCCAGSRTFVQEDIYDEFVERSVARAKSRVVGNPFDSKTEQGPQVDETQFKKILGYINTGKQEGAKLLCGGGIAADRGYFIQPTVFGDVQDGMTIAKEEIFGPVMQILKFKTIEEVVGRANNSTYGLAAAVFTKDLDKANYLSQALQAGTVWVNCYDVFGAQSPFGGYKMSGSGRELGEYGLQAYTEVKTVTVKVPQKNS

SMILES	inhibition [1]	IC50 ([2]; read-out: IC50)	IC50 [3]	IC50 ([3]; read-out: IC50)	IC50 [2]
S=C(SSC(=S)N1CCCCC1)N1CCCCC1 [BIS(PIPERIDINYLTHIOCARBONYL)DISULFIDE]		0.05 µM		1.51 µM	
Cl.NCCS [CYSTEAMINE HYDROCHLORIDE]			Not Active		Not Active
Cl.Cl.NCCSSCCN [CYSTAMINE DIHYDROCHLORIDE]		> 100 µM	Not Active		
CC(=O)NC(CS)C(=O)O (single isomer, unassigned)			Not Active		Not Active
S=C(SSC(=S)N1CCOCC1)N1CCOCC1		0.04 µM		1.43 µM	
S=C(SSC(=S)N(Cc1ccccc1)Cc1ccccc1)N(Cc1ccccc1)Cc1ccccc1 [BIS(DIBENZYLAMINETHIOCARBONYL)DISULFIDE]		> 100 µM	Not Active		

Second part, the compound after the results:

inhibition [1]	IC50 ([2]; read-out: IC50)	IC50 [3]	IC50 ([3]; read-out: IC50)	IC50 [2]	SMILES
inactive	0.27 µM	Not Active			CCN(Cc1ccccc1)C(=S)SSC(=S)N(CC)Cc1ccccc1
inactive		Not Active			CCN(Cc1ccc(F)cc1)C(=S)SSC(=S)N(CC)Cc1ccc(F)cc1
	2.85 µM		> 100 µM		CC(C)N(C(=S)SSC(=S)N(C)C)C(C)C
inactive	0.21 µM		10.9 µM		CCN(Cc1ccc(O)cc1)C(=S)SSC(=S)N(CC)Cc1ccc(O)cc1
	> 100 µM	Not Active			CC(C)CN(CC(C)C)C(=S)SSC(=S)N(CC(C)C)CC(C)C
	5.61 µM		72.6 µM		CCCCN(CCCC)C(=S)SSC(=S)N(CCCC)CCCC
inactive					CCN(CC)C(=S)SSC(=S)N(CC)CC
	2.95 µM		99.4 µM		CCN(Cc1ccc(C(=O)O)cc1)C(=S)SSC(=S)N(CC)Cc1ccc(C(=O)O)cc1
